Source: the NIST ThermoML archive (doi:10.1016/j.jct.2019.04.010)

Experiment: xn = mol fraction of the nth substance listed
Conditions: 100 kPa, Liquid; for mass density: Vibrating tube method; for viscosity: Concentric cylinders viscometry

CCCCn1cc[n+](C)c1.O=[N+]([O-])[O-] [1-butyl-3-methylimidazolium nitrate] + CCCC(C)O
Conditions	mass density, 308.15 K [kg/m3]	mass density, 313.15 K [kg/m3]	mass density, 318.15 K [kg/m3]	mass density, 323.15 K [kg/m3]	viscosity, 313.15 K [mPa·s]	viscosity, 318.15 K [mPa·s]	viscosity, 323.15 K [mPa·s]
x1 = 0.0812	842.8	838.8	834.7	830.7	2.3	1.95	1.66
x1 = 0.1604	882.7	879.2	875.2	871.4	2.8	2.4	1.99
x1 = 0.2403	919.4	916	912.1	908.7	3.55	3.05	2.49
x1 = 0.3499	964.4	961.2	957.5	954.3	5.05	4.37	3.56
x1 = 0.4399	997.5	994.4	990.9	987.9	6.97	5.91	4.81
x1 = 0.5604	1037.4	1034.4	1031.1	1028.2	10.51	8.91	7.13
x1 = 0.6505	1064.4	1061.4	1058.3	1055.5	14.75	12.21	9.68
x1 = 0.7405	1089.1	1086.1	1083.2	1080.5	20.64	17.09	13.67
x1 = 0.8501	1116.3	1113.4	1110.7	1108.1	31.9	26.5	21.47
x1 = 0.9396	1136.5	1133.8	1131	1128.4	50	40	32.3
x1 = 1	1149.3	1146.5	1143.8	1141.2	75.12	56.28	45.17
